# Paper PMC5054060, “Probing the nucleotide-binding activity of a redox sensor: two-component regulatory control in chloroplasts” (Photosynthesis Research, 2016)
# Biological target: T1, CSK_T (truncated Arabidopsis CSK, amino acids 301 to 611) (Arabidopsis thaliana, UniProt F4HVG8)
# T1 sequence (F4HVG8 301-611): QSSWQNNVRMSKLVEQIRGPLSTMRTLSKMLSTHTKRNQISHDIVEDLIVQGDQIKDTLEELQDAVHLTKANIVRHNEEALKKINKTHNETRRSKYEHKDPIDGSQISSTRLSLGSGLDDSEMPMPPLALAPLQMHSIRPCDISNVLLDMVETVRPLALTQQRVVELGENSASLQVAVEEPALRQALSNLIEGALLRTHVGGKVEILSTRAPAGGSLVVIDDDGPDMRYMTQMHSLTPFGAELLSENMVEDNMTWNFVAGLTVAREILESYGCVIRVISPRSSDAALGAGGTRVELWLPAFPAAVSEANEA
# Test: displacement of TNP-ATP fluorescence, […] nm
# Conditions: 10 mM NaCl, 10 mM Tris-HCl pH 8; 1 µM TNP-ATP; 2 µM protein (figure legend: 1 µM); competitive displacement, no metal added; read-out: Binding affinity / ATP (mm)
compound,measurement,value
Nc1ncnc2c1ncn2[C@@H]1O[C@H](COP(=O)(O)OP(=O)(O)OP(=O)(O)O)[C@@H](O)[C@H]1O [ATP],Kd,4.97 mM
